In patent US5171851A, “Imidazole substituted benzoxazine or benzothiazine derivatives” (Dong-A Pharm. Co., Ltd., priority 1990, dated 1992):
Values joined by “and” are separate entries in the source; they are usually repeats but may differ in a detail not shown here. Equal entries are not always repeated. Where two headings read alike, the source gives them in different places.

Experiments:
[1] = tested on: blood perfused papillary muscle preparation; assay: contractile power on blood perfused papillary muscle preparation; design: species or system dog; conditions: for activation at 0.003 mg / activation at 0.001 mg / activation at 0.01 mg / activation at 0.03 mg: Canis lupus familiaris, read-out: change of contractivity (%); for activation at 0.003 mg: dose 3.0 ug; for ED 30 (developed tension of papillary muscle): least-square method; for activation at 0.001 mg: dose 1.0 ug; for activation at 0.01 mg: dose 10.0 ug; for activation at 0.03 mg: dose 30.0 ug
Method: Determination of contractile power on blood perfused papillary muscle preparation:
Dogs of either sex weighing 7-12 kg were anesthetized with sodium pentobarbital (30 mg/kg, i.v.). Heparin of 1000 unit/kg was administered to each animal intravenously. The animals were exsanguinated and heart was removed. The preparation was perfused through the cannulated anterior septal artery (ASA) with arterial blood from a donor dog at constant pressure of about […]. Donor dogs were anesthetized with sodium pentobarbital (30 mg/kg, i.v.). Heparin of 1000 units/kg was administered intravenously. The papillary muscle was stimulated with rectangular pulses of 5- ms duration and about 1.5 times the threshold voltage at a rate of 120 stimuli/min through bipolar electrodes. Resting tension was made to 2 g. The developed tension of papillary muscle was determined by Isometric tresducer. Detailed method was reporated by Matsumoto in Am J. Physiol. 218, 1459-1463 (1970). Test compound at the doses of 10-30 ul was injected in flowing blood in the gum tube connected to catheter. The inotropic effect of the test compounds was shown by change percent of developed tension compared with that prior to the administration of the test compounds.

[2] = tested on: blood-perfused sino-atrial preparation; assay: sinus rate on blood-perfused sino-atrial preparation; design: species or system dog; conditions: for activation at 0.003 mg / activation at 0.001 mg / activation at 0.01 mg / activation at 0.03 mg: Canis lupus familiaris, read-out: change of sinus rate (%); for activation at 0.003 mg: dose 3.0 ug; for activation at 0.01 mg: dose 10.0 ug; for activation at 0.03 mg: dose 30.0 ug
Method: Determination of sinus rate on blood-perfused sino-atrial preparation: Mongrel gods of either sex weighing 7-12 kg were anesthetized with sodium pentoba rbital (30 mg/kg i.v.). Heparin ob 1000 unit/kg was administered to each animal intravenously and the animals were exsanguinated. Heart was removed and put in Krebs-Henseleit solution. Catheter was inserted into blood vessel between right coronary artery and SA nodes. Right atrium and catheter were together removed. Blood supplied from carotid artery of donor dog of either sex weighing 15-25 kg, was supplied to blood vessel cather from right coronary artery and SA node under constant blood pressure of 100 mmHG by use of Peristaltic pump. The resting tension of right atrial muscle was made to 2g. The sinus rate triggered by spontaneous contraction of atrial muscle was determined on Narco physiograph Narcotrace 4). Detailed method was reported by S. Chiba, et al. in Japanese Pharmacology 25, 433-439(1975). Doses of test compounds were injected into flowing blood in gum tube connected to the near part of the catheter inserted into right coronary artery. The effects on sinus rate were shown as percent compared with the sinus ratio prior to the injection of the test compounds.

anesthetized cats = assay: cardiotonic effect on anesthetized cats; type: in vivo, cat; conditions: Felis catus; for change in vivo at 0.01 mg/kg: 0.01 mg/Kg iv; for change in vivo at 0.03 mg/kg: 0.03 mg/Kg iv; for change in vivo at 0.1 mg/kg: 0.1 mg/Kg iv
Method: Determination of cardiotonic effect on anesthetized cats: Male cats weighing about 3 kg were anesthetized with sodium pentobarbital (30 mg/kg, i.p.). The same anesthetic was infused intravenously at the does of 4 mg/kg/hr in order to maintain the anesthetic state and mechanically ventilated through a cuffed endotracheal tube, chest was opened by a midline incision and a catheter for measuring left ventricular pressure was inserted through apex into left ventricle and the left ventricular pressure was measured. LVdP/dt was determined by use of diffentiator from the left ventricular pressure. Systemic blood pressure was measured by the left femoral artery by a pressure transducer and heart rate was measured by a cardiotachometer triggered by blood pressure pulses. Test compound was injected into the femoral vein by use of cannule. After completion of the surgical procedures, the cats were allowed to recover about 30 minutes before drug administration. These compounds were dissolved in 0.9% physiological saline and diluted with saline. Solvent such as DMSO or DMF was also used, if necessary. Test compound of 0.1 ml/kg was used. Detailed method was reporated in J. Med. Chem. 30. 1279-87(1987).

[3] = target: T1, cyclic AMP phosphodiesterase (Canis lupus familiaris, UniProt A0A8I3NYE0); assay: effect on cyclic AMP phosphodiesterase isolated from dog's heart; type: biochemical; conditions: substrate 1.0 uM; for inhibition at 10 µM / inhibition at 100 µM / Inhibitory effect on PDE activity: falls with concentration; for inhibition at 10 µM / inhibition at 100 µM: read-out: Inhibitory effect on PDE activity; for IC50: pH 8.0, read-out: IC 50 (50% inhibition of substrate hydrolysis); for Inhibitory effect on PDE activity: unit assumed
T1 construct: Two to four grams of left ventricular muscle was obtained; from tissue; host or cells: dog left ventricular muscle, detergent-extracted particulate fraction, DEAE-cellulose pool
T1 sequence (A0A8I3NYE0 1-1135): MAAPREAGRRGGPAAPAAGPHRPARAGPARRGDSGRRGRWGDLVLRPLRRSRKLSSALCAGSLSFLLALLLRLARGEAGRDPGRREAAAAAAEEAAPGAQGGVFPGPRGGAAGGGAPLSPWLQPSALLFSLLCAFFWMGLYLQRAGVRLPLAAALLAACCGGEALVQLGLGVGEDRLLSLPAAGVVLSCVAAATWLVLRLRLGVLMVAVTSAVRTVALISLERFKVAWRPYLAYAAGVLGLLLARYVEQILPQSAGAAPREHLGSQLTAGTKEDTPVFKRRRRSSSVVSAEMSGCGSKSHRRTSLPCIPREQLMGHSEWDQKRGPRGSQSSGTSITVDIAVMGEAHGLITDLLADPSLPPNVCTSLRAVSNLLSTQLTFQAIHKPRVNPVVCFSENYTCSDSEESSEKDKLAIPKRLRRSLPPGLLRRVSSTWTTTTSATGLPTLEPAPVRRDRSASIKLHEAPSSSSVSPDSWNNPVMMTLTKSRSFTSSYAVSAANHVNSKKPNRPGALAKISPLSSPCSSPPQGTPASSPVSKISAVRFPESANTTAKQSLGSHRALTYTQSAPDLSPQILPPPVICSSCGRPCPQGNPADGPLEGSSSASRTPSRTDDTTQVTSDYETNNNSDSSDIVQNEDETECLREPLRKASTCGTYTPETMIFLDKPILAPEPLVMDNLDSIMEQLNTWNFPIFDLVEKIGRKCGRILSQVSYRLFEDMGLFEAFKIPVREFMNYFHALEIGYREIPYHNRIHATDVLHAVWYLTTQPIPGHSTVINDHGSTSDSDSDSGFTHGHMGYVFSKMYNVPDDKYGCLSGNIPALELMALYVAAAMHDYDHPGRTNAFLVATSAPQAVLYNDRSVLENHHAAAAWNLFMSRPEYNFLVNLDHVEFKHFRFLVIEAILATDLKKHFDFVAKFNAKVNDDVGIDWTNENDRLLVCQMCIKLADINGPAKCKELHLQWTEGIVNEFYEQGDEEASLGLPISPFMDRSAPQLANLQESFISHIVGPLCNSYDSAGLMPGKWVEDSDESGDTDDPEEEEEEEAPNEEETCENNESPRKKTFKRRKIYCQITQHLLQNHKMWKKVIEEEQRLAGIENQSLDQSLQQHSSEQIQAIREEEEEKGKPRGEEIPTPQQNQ

**Q.** What does the source list for `Cc1cn(-c2cc(C)c3c(c2)CSC(=O)N3)cn1` [8-methyl-6-(4-methylimidazol-1-yl)(4H)-3,1-benzothiazin-2-one]?
**A.** activation at 0.003 mg [1]: 26.5%; ED 30 (developed tension of papillary muscle) [1]: 5.0 µg; ED 30 (developed tension of papillary muscle) ([1]; listed as 8-methyl-6-(4-methylimidazol-1-)-(4H)-3,1-benzothiazin-2-one): 0.6 µg; activation at 0.003 mg [2]: 3.3%; change of sinus rate (%) ([2]; at the ED 30 dose): +3.5%; change of sinus rate (%) ([2]; at the ED 30 dose, listed as 8-methyl-6-(4-methylimidazol-1-)-(4H)-3,1-benzothiazin-2-one): +7.1%; change of sinus rate (%) ([2]; dose 0.1 ug): +2.5%; change of sinus rate (%) ([2]; dose 0.3 ug): +1.6%; change of sinus rate (%) ([2]; dose 1.0 ug): +2.5%; change in vivo at 0.01 mg/kg (anesthetized cats; read-out: HR (%)): 4.2%; change in vivo at 0.01 mg/kg (anesthetized cats; read-out: LV dp/dt (%)): 33.3%; change in vivo at 0.01 mg/kg (anesthetized cats; read-out: LVP (%)): 3.3%; change in vivo at 0.01 mg/kg (anesthetized cats; read-out: SBP (%)): 0%; change in vivo at 0.01 mg/kg (anesthetized cats; read-out: dBP): 0%; change in vivo at 0.01 mg/kg (anesthetized cats; read-out: mBP (%)): 0%; change in vivo at 0.03 mg/kg (anesthetized cats; read-out: HR (%)): 7.3%; change in vivo at 0.03 mg/kg (anesthetized cats; read-out: LV dp/dt (%)): 58.4%; change in vivo at 0.03 mg/kg (anesthetized cats; read-out: LVP (%)): 5.7%; change in vivo at 0.03 mg/kg (anesthetized cats; read-out: SBP (%)): -3.8%; change in vivo at 0.03 mg/kg (anesthetized cats; read-out: dBP): -4%; change in vivo at 0.03 mg/kg (anesthetized cats; read-out: mBP (%)): -4.5%; change in vivo at 0.1 mg/kg (anesthetized cats; read-out: HR (%)): 12.6%; change in vivo at 0.1 mg/kg (anesthetized cats; read-out: LV dp/dt (%)): 75%; change in vivo at 0.1 mg/kg (anesthetized cats; read-out: LVP (%)): 8.8%; change in vivo at 0.1 mg/kg (anesthetized cats; read-out: SBP (%)): -6.5%; change in vivo at 0.1 mg/kg (anesthetized cats; read-out: dBP): -12%; change in vivo at 0.1 mg/kg (anesthetized cats; read-out: mBP (%)): -16.1%

**Q.** Which results are given for `O=C1Nc2ccc(-n3cnc4ccccc43)cc2CO1` [6-(benzimidazol-1-yl)-(4H)-3,1-benzoxazin-2-one]?
**A.** activation at 0.001 mg [1]: 0%; activation at 0.003 mg [1]: 1.13%; activation at 0.01 mg [1]: 2.63%; activation at 0.03 mg [1]: 5.24%; ED 30 (developed tension of papillary muscle) [1]: > 1000 µg; activation at 0.001 mg ([2]; dose 1.0 ug): 0%; activation at 0.003 mg [2]: 0%; activation at 0.01 mg [2]: 0.3%; activation at 0.03 mg [2]: 0.75%; inhibition at 10 µM ([3]; 10 uM test compound): 61.6%; inhibition at 100 µM ([3]; 100 uM test compound): 30.1%

**Q.** With `O=C1Nc2ccc(-n3ccnc3)cc2CO1` [6-(imidazol-1-yl)-(4H)-3,1-benzoxazin-2-one] as the molecule, how does the activation at 0.001 mg [1] read?
**A.** 3.33%

**Q.** What about the activation at 0.003 mg [1] of the same molecule?
**A.** 6.95%

**Q.** And the activation at 0.01 mg [1]?
**A.** 9.76%

**Q.** And the activation at 0.03 mg [1]?
**A.** 16.2%

**Q.** And the “ED 30 (developed tension of papillary muscle)” value [1]?
**A.** > 1000 µg

**Q.** What about the activation at 0.001 mg ([2]; dose 1.0 ug) of the same molecule?
**A.** 0%

**Q.** And the activation at 0.003 mg [2]?
**A.** 0.84%

**Q.** And the activation at 0.01 mg [2]?
**A.** 2.52%

**Q.** What about the activation at 0.03 mg [2] of the same molecule?
**A.** 6.67%

**Q.** And the inhibition at 10 µM ([3]; 10 uM test compound)?
**A.** 60%

**Q.** What about the inhibition at 100 µM ([3]; 100 uM test compound) of the same molecule?
**A.** 41.8%

**Q.** And the IC50 [3]?
**A.** 31 µM and 12.7 µM

**Q.** Which results are given for `Cc1nccn1-c1ccc2c(c1)COC(=O)N2` [6-(2-methylimidazol-1-yl)-(4H)-3,1-benzoxazine-2-one]?
**A.** activation at 0.001 mg [1]: 0%; activation at 0.003 mg [1]: 2.44%; activation at 0.01 mg [1]: 8.57%; activation at 0.03 mg [1]: 13.5%; ED 30 (developed tension of papillary muscle) [1]: > 1000 µg; activation at 0.001 mg ([2]; dose 1.0 ug): 0%; activation at 0.003 mg [2]: 0%; activation at 0.01 mg [2]: 0.86%; activation at 0.03 mg [2]: 3.42%; inhibition at 10 µM ([3]; 10 uM test compound): 51.7%; inhibition at 100 µM ([3]; 100 uM test compound): 35.8%; IC50 [3]: 12.8 µM

**Q.** How did the Inhibitory effect on PDE activity ([3]; 0.1 uM test compound) turn out when “6-(2-methylimidazol-1-yl)-(4H)-3,1-benzimidazol-2-one” was run?
**A.** 95.9%

**Q.** And the Inhibitory effect on PDE activity ([3]; 1 uM test compound)?
**A.** 86.8%

**Q.** And the Inhibitory effect on PDE activity ([3]; 10 uM test compound)?
**A.** 62.6%

**Q.** And the Inhibitory effect on PDE activity ([3]; 100 uM test compound)?
**A.** 37.9%

**Q.** And the IC50 [3]?
**A.** 32.4 µM
